Test results as given in patent US20140275969A1, “FUNCTIONAL BROWN ADIPOSE TISSUE IMAGING TECHNIQUE” (GENERAL ELECTRIC COMPANY, priority 2013, published 2014).
“Also recorded” adds a separate entry of the source. Marks after values point to notes of the source that are not given here.

Columns and labels:
heart = assay: Hyperpolarized 13C MR imaging after norepinephrine stimulation, heart ROI; assay type: in vivo, male Sprague-Dawley rats
Description: (§1) The following experimental results are from studies using male Sprague-Dawley rats (n=5, weight=336 g, SD=66 g) that were assessed for brown adipose tissue activation and assessment according to certain embodiments of the disclosure. The animals were kept at an ambient room temperature of 22° C. Ketamine/xylazine was used for anesthesia, with periodic intramuscular re-administration to maintain anesthesia (80-100 mg/kg ketamine, 8-10 mg/kg xylazine). Blood oxygen saturation and heart rate were monitored using a peripheral pulse oximeter placed on the tail. The body temperature of the animal was maintained throughout the imaging procedures using a heated water pad.
(§2) The animals were scanned in the supine position using a 3T GE MR750 scanner (GE Healthcare, Waukesha, Wis.). A micro-strip dual-tuned ^1H/^13C rat coil (Magvale, San Francisco, Calif.) was used. The rat was positioned so that the heart was in the centre of the coil, taking care to position the dorsal interscapular fat pad to remain within the sensitive region of the coil. A T2-weighted fast spin echo (FSE) (TE, 87 ms; TR, 5 s; matrix size, 192×160; FOV, 12×12 cm^2; slice thickness, 3 mm) sequence was used to obtain an anatomical reference for co-registration. A 2D FSE IDEAL sequence (TR, 5 s; matrix size, 192×160; FOV, 12×12 cm^2, slice thickness, 3 mm) was used to obtain water and fat images.
(§3) Hyperpolarized ^13C MR imaging scans were performed following intravenous tail vein infusions of 2.0 mL/80 mM pre-polarized [1-^13C] pyruvate. Pyruvate was injected over 10 seconds, with the MR imaging acquisition started simultaneously with the start of injection. Hyperpolarized scans were performed during baseline (n=5) and stimulated (n=3) conditions, 15 minutes after 2.5 mg/kg intraperitoneal norepinephrine (NE) injection, separated by approximately 1 hour to prepare the hyperpolarized sample. Pyruvate, bicarbonate, and lactate were imaged in an axial orientation using a multi-slice, single-shot, time-resolved 13C spiral imaging pulse sequence previously developed for large animal cardiac imaging (TR, 5 s; FOV, 48×48 cm^2; in-plane resolution, 6.8×6 8 mm^2; 6 slices, slice thickness/spacing, 10 mm/1 mm; pyruvate FA 10°, bicarbonate and lactate FA 60°; scan time, 1 min) (18, 24, 25). Each metabolic volume was acquired once during each TR, giving a total of 12 frames.
(§4) ROIs were drawn using the T2-weighted anatomical images, over the heart, kidneys, and in the dorsal interscapular region, a known depot of BAT in rodents. The ^13C image intensity in these ROIs were normalized to the temporal maximum pyruvate signal in the heart, and corrected for nominal FA by dividing by sin(FA). Statistical significance between baseline and norepinephrine stimulated conditions were assessed using a two-tailed, unpaired Student's t-test. Statistical significance was considered at the P<0.05 level.

[1] = system: brown adipose tissue (BAT-associated dorsal interscapular region); assay: Hyperpolarized 13C MR imaging of brown adipose tissue activation after norepinephrine stimulation; assay type: in vivo, male Sprague-Dawley rats
Description: as §1, §2, §3, §4
To separate the effect from the effect of a change in perfusion, the dynamic data was fit on a voxel-by-voxel basis to obtain the apparent rate constants for pyruvate-to-bicarbonate conversion (kpyr,bic, s^−1) and pyruvate-to-lactate exchange (kpyr,lac, s^−1).

kidneys = assay: Hyperpolarized 13C MR imaging after norepinephrine stimulation, kidney ROI; assay type: in vivo, male Sprague-Dawley rats
Description: as §1, §2, §3, §4

[2] = human full blood at 37 degrees C.; cited from earlier work
[3] = BAT-associated dorsal interscapular region, voxel-by-voxel fit of dynamic data

SMILES	Maximum bicarbonate to maximum cardiac pyruvate signal ratio (heart; 15 minutes after 2.5 mg/kg intraperitoneal norepinephrine, n = 2, mean±SD)	Maximum lactate to maximum cardiac pyruvate signal ratio (heart; 15 minutes after 2.5 mg/kg intraperitoneal norepinephrine, n = 3, mean±SD)	Increase in hyperpolarized lactate signal versus baseline (heart; P<0.001)	Hyperpolarized [1-13C] lactate signal change following norepinephrine infusion (heart; in words)	13C bicarbonate signal change following norepinephrine stimulation, relative to substrate signal in the heart (heart; in words, listed as NE)	13C bicarbonate signal change following norepinephrine stimulation, relative to substrate signal in the heart (heart; in words, listed as norepinephrine)	13C bicarbonate signal change following norepinephrine stimulation, relative to substrate signal in the heart ([1]; BAT-associated dorsal interscapular region, in words)	Difference in apparent pyruvate-to-bicarbonate conversion rate (kpyr,bic) versus baseline [1, 3]	Difference in apparent pyruvate-to-lactate conversion rate (kpyr,lac) versus baseline [1, 3]	Increase in hyperpolarized [1-13C] lactate (lactate-to-pyruvate ratio) versus baseline ([1]; BAT-associated interscapular region, P<0.001)	Increase in hyperpolarized 13C bicarbonate (bicarbonate-to-pyruvate ratio) versus baseline ([1]; BAT-associated interscapular region, P<0.01)	Hyperpolarized [1-13C] lactate signal change following norepinephrine infusion ([1]; dorsal interscapular region, in words)	Maximum bicarbonate to maximum cardiac pyruvate signal ratio ([1]; interscapular region, 15 minutes after 2.5 mg/kg intraperitoneal norepinephrine, n = 2, mean±SD)	Maximum lactate to maximum cardiac pyruvate signal ratio ([1]; interscapular region, 15 minutes after 2.5 mg/kg intraperitoneal norepinephrine, n = 3, mean±SD)	Maximum bicarbonate to maximum cardiac pyruvate signal ratio (kidneys; kidney, 15 minutes after 2.5 mg/kg intraperitoneal norepinephrine, n = 2, mean±SD)	Maximum lactate to maximum cardiac pyruvate signal ratio (kidneys; kidney, 15 minutes after 2.5 mg/kg intraperitoneal norepinephrine, n = 3, mean±SD)	13C bicarbonate signal change following norepinephrine stimulation, relative to substrate signal in the heart (kidneys; kidney, in words)	Increase in hyperpolarized lactate signal versus baseline (kidneys; kidneys, P<0.05)	Hyperpolarized [1-13C] lactate signal change following norepinephrine infusion (kidneys; kidneys, in words)	T1 relaxation [2]
NC[C@H](O)c1ccc(O)c(O)c1 [Norepinephrine, norepinephrine]	0.0099 ± 0.0032^ns	0.0816 ± 0.0191	4.0 fold	Increases	remained constant	remained constant; also recorded: not statistically significant	increased	3.4 fold	4.0 fold	4.0 fold	4.3 fold	Increases	0.0047 ± 0.0010*^	0.0543 ± 0.0051	0.0036 ± 0.0028^ns	0.0625 ± 0.0130	decreased	1.9 fold	Increases	
CC(=O)[13C](=O)O [^13C1-pyruvate, [1-^13C] pyruvate]																				about 42 s
